The values that follow come from EP1764134B1, “Purine derivatives linked to arylpiperazines” (Spectrum Pharmaceuticals, Inc., priority 2001, dated 2003).

In one series the test system is male C-57 mice. Kind of series: Pre-pulse inhibition testing: reversal of PCP disruption of pre-pulse inhibition of acoustic startle. The class given is in vivo. The settings on record: route not given (method: PO or SC); 20 minutes prior to PCP 5mg/kg IP.
Another series has as its system mice. Kind of series: Conditioned avoidance testing (CAR, active avoidance). The class given is in vivo. The conditions noted are these: S.C. 20 minutes before the test session. How it is done: Training: Consists of 20 trials with variable inter-trial intervals (Trained to 80% Avoidance Criteria). After a one-minute acclimation period, the house light and an acoustic 90dB tone (conditioned stimuli) are presented. A response (crossing to dark compartment) within 5 seconds ends the trial and trial is recorded as avoidance response (CAR). […] To avoid shock, animals learn to move from the lighted side of the chamber to the dark side when the cue is presented (avoidance) or moved when the shock is administered (escape).Testing: Vehicle or test compounds are administered S.C. 20 minutes before the test session. (Checking for disruption of cognition and attention) Table 3. Conditioned Avoidance Responding

Experimental for Caco-2 cells: Caco-2 cells were used to evaluate the membrane permeability of eight embodiments of the present invention. Monolayers were grown to confluence and the integrity checked by transepithelial electrical resistance (TEER) and permeability of Lucifer Yellow. The expression of P-glycoprotein was confirmed by measuring the permeability of digoxin alone and in the presence of verapamil. Permeability measurements were taken for each compound in the apical to basolateral (AP-BL) direction, and the basolateral to apical (BL-AP) direction.
Experimental for male C-57 mice: The non-competitive NMDA receptor antagonist phencyclidine (PCP) reduces pre-pulse inhibition (PPI) of the acoustic startle response in rodents. […] For testing of PPI, male C-57 mice were assigned to five dose groups of eight animals per group, and vehicle or test compound were administered orally (PO) or subcutaneously (SC) 20 minutes prior to intraperitoneal (IP) administration of vehicle or PCP (5mg/kg). Ten minutes following PCP administration, the mice were placed into Hamilton-Kinder startle chambers and evaluation of pre-pulse inhibition procedure was performed. Following a five-minute acclimatization period with background white noise (65db), mice were exposed to five different trial types. Trials were presented ten-time search in a quasi-random order, with randomized 5 to 25 second inter-trial intervals. Trials were: stimulus only trial (120db white noise, 50ms stimulus); two different prepulse+pulse trials in which a 20ms 5db, or 10db stimuli above a 65db background preceded the 120db pulse by 120ms; a 10dbprepulse without a 120db pulse; and a no stimulus trial, in which only the background noise was presented.

As to `O=C1CCCc2c1ccn2CCCN1CCN(c2cccc(C(F)(F)F)c2)CC1` [NEO-356, 1-{3-[4-(3-Trifluoromethylphenyl)piperazin-1-yl]propyl}-1,5,6,7-tetrahydroindo1-4-one], the PERMEABILITY result with Caco-2 cells is given as “High”. The “PCP Disruption of Pre-pulse Inhibition (result in words)” value (“PCP Disruption of Pre-pulse Inhibition” below) in the series with male C-57 mice was “No reversal”. For the same compound, in the series with mice, the “Conditioned Avoidance Responding (overall effect / effect on escape or avoidance, in words)” value is given as “No effect”.
As for `O=C1CCCc2c1ccn2CCN1CCN(c2cccc(C(F)(F)F)c2)CC1` [NEO-359, 1-{2-[4-(3-Trifluoromethylphenyl)piperazin-1-yl]ethyl}-1,5,6,7-tetrahydroindol-4-one], the PERMEABILITY entry in the series on Caco-2 cells is reported as “High”. In addition, in the series on male C-57 mice, the “PCP Disruption of Pre-pulse Inhibition” value is “No reversal”. In the series with mice, the “Conditioned Avoidance Responding (overall effect / effect on escape or avoidance, in words)” value is “No effect on escape or avoidance” and the “Conditioned Avoidance Responding: effect on latency (in words)” value is on record as “Significant decrease in latency”.
Consider `O=C1CCCc2c1ccn2CCCN1CCN(c2cccc(Cl)c2)CC1` [NEO-363, 1-{3-[4-(3-Chlorophenyl)piperazine-1-yl]propyl}-1,5,6,7-tetrahydroindol-4-one], for which the PERMEABILITY entry with Caco-2 cells is recorded as “High”. Also, in the series with mice, the “Conditioned Avoidance Responding (overall effect / effect on escape or avoidance, in words)” value is reported as “No effect”.
For `COc1ccccc1N1CCN(CCCn2ccc3c2CCCC3=O)CC1` [NEO-370, 1-{3-[4-(2-Methoxyphenyl)piperazine-1-yl]propyl}-1,5,6,7-tetrahydroindol-4-one], the PERMEABILITY result in the series with Caco-2 cells is “High”. Besides, in the series with mice, the “Conditioned Avoidance Responding: effect on avoidance (in words)” value is “Significant reduction in avoidance” and the “Conditioned Avoidance Responding: effect on latency (in words)” value is “Significant increase in latency”.
As to `O=C1CCCc2c1ccn2CCN1CCN(c2cccc(Cl)c2)CC1` [NEO-376, 1-{2-[4-(3-Chloro-phenyl)-piperazin-1-yl]-ethyl}-1,5,6,7-tetrahydro-indol-4-one], the PERMEABILITY entry in the series with Caco-2 cells is “High”. Further, in the series with mice, the “Conditioned Avoidance Responding (overall effect / effect on escape or avoidance, in words)” value is recorded as “No effect on escape or avoidance” and the “Conditioned Avoidance Responding: effect on latency (in words)” value is “significant increase in latency”.
With `COc1ccccc1N1CCN(CCn2ccc3c2CCCC3=O)CC1` [NEO-377, 1-{2-[4-(2-Methoxyphenyl)-piperazin-1-yl]-ethyl}-1,5,6,7-tetrahydro-indol-4-one], the PERMEABILITY result with Caco-2 cells is given as “High”. In the series on mice, the “Conditioned Avoidance Responding: effect on avoidance (in words)” value was “Significant reduction in avoidance” and the “Conditioned Avoidance Responding: effect on latency (in words)” value is “Significant increase in latency”.
For the compound `O=C1CCCc2c1ccn2CCCN1CCN(c2ncccn2)CC1` [NEO-381, 1-{3-[4-(2-Pyrimidyl)piperazine-1-yl]propyl}-1,5,6,7-tetrahydroindol-4-one], the PERMEABILITY result in the series on Caco-2 cells was “High”. Moreover, in the series with male C-57 mice, the “PCP Disruption of Pre-pulse Inhibition” value is “No reversal”. Also, in the series with mice, the “Conditioned Avoidance Responding (overall effect / effect on escape or avoidance, in words)” value is “No effect”.
For the compound `O=C1CCCc2c1ccn2CCCCN1CCN(c2cccc(C(F)(F)F)c2)CC1` [NEO-392, 1-{4-[4-(3-Trifluoromethylphenyl)piperazin-1-yl]butyl}-1,5,6,7-tetrahydroindol-4-one], the PERMEABILITY result in the series on Caco-2 cells is recorded as “High”. Moreover, in the series on mice, the “Conditioned Avoidance Responding: effect on avoidance (in words)” value is listed as “Significant reduction in avoidance” and the “Conditioned Avoidance Responding: effect on latency (in words)” value was “Significant increase in latency”.
As to `CC(C)NCC(O)COc1cccc2ccccc12` (stereo not drawn) [Propranolol, reference compound], in the series with Caco-2 cells, the PERMEABILITY result was “High”.
In the case of `Cc1nc2n(c(=O)c1CCN1CCC(c3noc4cc(F)ccc34)CC1)CCCC2` [Risperidone, risperidone, reference compound], in the series on mice, the “Conditioned Avoidance Responding: effect on avoidance (in words)” value was “Significant reduction in avoidance” and the “Conditioned Avoidance Responding: effect on latency (in words)” value is listed as “Significant increase in latency”.
